Like-named read-outs stand apart in the source and are kept apart here. Bounds are passed on as bounds.

Data set [1] concerns the target BCL2 (Homo sapiens (Human), UniProt P10415). Description: Molecular level activity test of anti-apoptotic protein BCL2 (HTRF, binding to Bim peptide). Particulars: HTRF, binding of BCL2 to Bim peptide; read-out: BCL2 nM (inhibitory activity, IC50). The essentials:
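Signal comes from proximity of anti-His-labelled BCL2 and streptavidin-XL665-bound biotin-BIM peptide. Test compounds, added in 2% DMSO, were preincubated with protein and peptide for one hour; detection reagents then incubated four hours at room temperature before reading.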
Background: In TR-FRET formats the signal depends on donor and acceptor labels being close together.

The target of data set [2] is human CYP3A4 enzyme (Homo sapiens (Human), UniProt P08684). The experiment in a line: CYP3A4 enzyme inhibitory activity (Vivid CYP3A4 Green screening kit).
Protocol: The inhibitory activity of compounds on human CYP3A4 enzyme was detected using a VIVID™ CYP3A4 GREEN SCRNING KIT reagent kit. The Vivid™ CYP450 screening kit includes a Vivid™ substrate, Vivid™ fluorescence standard, reaction buffer, Vivid™ regeneration system, NADP+ and CYP450 BACULOSOMES™ Plus reagent. Operations were performed following the instructions, and a blank control group was set up without adding any compounds.
The IC50 value of the compounds inhibiting human CYP3A4 enzyme was calculated using Graphpad Prism 7.00 software through the formula Y=100/(1+10^((Log IC50−X)*HillSlope)).
The test system of data set [3] is RS4; 11 cells. Description: Tumor proliferation inhibitory activity test (MTS) on RS4; 11. The data set is classed as cell-based. Particulars: Homo sapiens, RS4-11, 72 h, 3 days incubation. The essentials:
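RS4;11 cells were exposed to serially diluted compound (0.2% DMSO control) for 3 days at 37 °C/5% CO2, followed by MTS for 3–4 h. Read-out was OD490−OD690, and inhibition was calculated relative to the DMSO and blank wells.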

For data set [4], the target named is BCL-XL (Homo sapiens (Human), UniProt Q07817). The experiment in a line: BCL-XL enzyme molecular level activity test (HTRF, binding to BIM peptide). Particulars: binding of BCL-XL to BIM peptide, read-out: BCL-XL inhibitory activity (IC50). A digest of the protocol:
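HTRF binding assay: His-tagged recombinant BCL-XL with biotin-BIM peptide and compound (2% DMSO), 1 h. Anti-His and streptavidin-XL665 detection reagents added, 4 h at room temperature. Excitation 320 nm; 665/615 nm ratio reflects binding, with no-protein background and no-compound full-binding controls.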

The target in data set [5] is BCL2 (G101V) (Homo sapiens (Human), UniProt P10415, G101V). The experiment in a line: Molecular level activity test of anti-apoptotic protein BCL2 (G101V) (HTRF, binding to Bim peptide). The conditions noted are these: inhibition of BCL2 (G101V) binding to Bim peptide, read-out: BCL-2 (G101V). The essentials: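 His-tagged recombinant BCL2 (G101V) incubated 1 h with biotin-BIM peptide and compound (2% DMSO), then anti-His and streptavidin-XL665 detection reagents added for 4 h at room temperature. HTRF signal reflects compound effect on BCL2–BIM binding.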

The target of data set [6] is BCL2 (D103Y) (Homo sapiens (Human), UniProt P10415, D103Y). Description: Molecular level activity test of BCL2 (D103Y) (HTRF, binding to Bim peptide). Particulars: read-out: BCL-2 (D103Y) (nM) (inhibitory activity, IC50). The essentials: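 His-tagged recombinant protein mixed with biotinylated BIM peptide and compound (2% DMSO), reacted 1 h. Anti-His and streptavidin-XL665 detection reagents then added and incubated 4 h at room temperature before HTRF read-out of binding inhibition.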

Where [7] appears, read: read-out: CYP3A4 (IC50), Vivid CYP3A4 Green screening kit.

Sequence of human CYP3A4 enzyme (P08684 whole entry): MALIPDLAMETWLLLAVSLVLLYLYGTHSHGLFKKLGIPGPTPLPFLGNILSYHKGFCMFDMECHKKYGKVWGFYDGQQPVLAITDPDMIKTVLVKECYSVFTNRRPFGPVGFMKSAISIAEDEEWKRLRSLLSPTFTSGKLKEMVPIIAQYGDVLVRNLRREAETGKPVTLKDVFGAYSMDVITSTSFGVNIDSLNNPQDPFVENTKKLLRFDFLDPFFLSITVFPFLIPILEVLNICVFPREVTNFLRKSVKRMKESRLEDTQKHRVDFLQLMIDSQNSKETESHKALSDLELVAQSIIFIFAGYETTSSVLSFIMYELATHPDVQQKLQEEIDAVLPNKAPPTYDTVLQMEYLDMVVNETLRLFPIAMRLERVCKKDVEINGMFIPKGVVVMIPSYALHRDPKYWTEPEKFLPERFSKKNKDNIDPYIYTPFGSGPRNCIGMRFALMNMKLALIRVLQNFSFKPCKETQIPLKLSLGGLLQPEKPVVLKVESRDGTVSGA
Sequence of BCL-XL (Q07817 whole entry): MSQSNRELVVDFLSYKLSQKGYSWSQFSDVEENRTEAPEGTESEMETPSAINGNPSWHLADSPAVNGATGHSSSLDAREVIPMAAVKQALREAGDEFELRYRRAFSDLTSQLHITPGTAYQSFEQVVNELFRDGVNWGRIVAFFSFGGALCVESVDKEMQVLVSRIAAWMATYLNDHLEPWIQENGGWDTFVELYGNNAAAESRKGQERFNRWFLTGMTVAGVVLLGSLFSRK

In the case of `CC(C)c1ccccc1[C@@H]1CCCN1C1CC2(CCN(c3ccc(C(=O)NS(=O)(=O)c4cc([N+](=O)[O-])c(NCC5(F)CCN(C6COC6)CC5)c5[nH]cnc45)c(Oc4cnc5[nH]ccc5c4)c3)CC2)C1` [compound 002], the IC50 in data set [1] is below 10 nM; in data set [2] it was above 20000 nM; in data set [3], 0.5 to 1 nM; in data set [4] (values in nM) it was above 500 nM; in data set [5], below 10 nM; in data set [6], below 10 nM.
With `COc1ccc(CN2CCN(C3CC4(CCN(c5cc(Oc6cnc7[nH]ccc7c6)c(C(=O)NS(=O)(=O)c6ccc(NCC7CCOCC7)c([N+](=O)[O-])c6)cn5)CC4)C3)C(c3ccccc3C(C)C)C2)cc1` (centres unmarked) [compound 063, 4-((1H-pyrrolo[2,3-b]pyrid-5-yl)oxy)-6-(2-(2-(2-isopropylphenyl)-4-(4-methoxybenzyl)piperazin-1-yl)-7-azaspiro[3.5]non-7-yl)-N-((3-nitro-4-(((tetrahydro-2H-pyran-4-yl)methyl)amino)phenyl)sulfonyl) nicotinamide], the IC50 in data set [1] was below 10 nM; in data set [2] (setting [7]), above 20000 nM; in data set [3], below 0.5 nM; in data set [4] (values given in μM), above 1000 nM; in data set [5], below 10 nM; in data set [6] it was below 10 nM.
Turning to `CC(C)c1ccccc1[C@@H]1CN(Cc2cccc(F)c2F)CCN1C1CC2(CCN(c3cc(Oc4cnc5[nH]ccc5c4)c(C(=O)NS(=O)(=O)c4ccc(NCC5(F)CCOCC5)c([N+](=O)[O-])c4)cc3F)CC2)C1` [compound 189, (R)-2-((1H-pyrrolo[2,3-b]pyrid-5-yl)oxy)-4-(2-(4-(2,3-difluorobenzyl)-2-(2-isopropylphenyl)piperazin-1-yl)-7-azaspiro[3.5]non-7-yl)-5-fluoro-N-((4-(((4-fluorotetrahydro-2H-pyran-4-yl)methyl)amino)-3-nitrophenyl)sulfonyl)benzamide], the IC50 in data set [1] was below 10 nM; in data set [2] (setting [7]), above 20000 nM; in data set [3] it was below 0.5 nM; in data set [4] (values given in μM), 1900 nM; in data set [5], below 10 nM; in data set [6] it was below 10 nM.
With `COc1ccc(CN2CCN(C3CC4(CCN(c5cc(Oc6cnc7[nH]ccc7c6)c(C(=O)NS(=O)(=O)c6ccc(NCC7CCOCC7)c([N+](=O)[O-])c6)cn5)CC4)C3)[C@H](c3ccccc3C(C)C)C2)cc1` [compound 257, (R)-4-((1H-pyrrolo[2,3-b]pyrid-5-yl)oxy)-6-(2-(2-(2-isopropylphenyl)-4-(4-methoxybenzyl)piperazin-1-yl)-7-azaspiro[3.5]non-7-yl)-N-((3-nitro-4-(((tetrahydro-2H-pyran-4-yl)methyl)amino)phenyl)sulfonyl) nicotinamide], the IC50 in data set [1] is below 10 nM; in data set [2] (setting [7]) it was above 20000 nM; in data set [3], below 0.5 nM; in data set [5], below 10 nM; in data set [6], below 10 nM.
As to `COc1ccc(CN2CCN(C3CC4(CCN(c5cc(Oc6cnc7[nH]ccc7c6)c(C(=O)NS(=O)(=O)c6ccc(NCC7(F)CCOCC7)c([N+](=O)[O-])c6)cn5)CC4)C3)[C@H](c3ccccc3C(C)C)C2)cc1` [compound 258, (R)-4-((1H-pyrrolo[2,3-b]pyrid-5-yl)oxy)-N-((4-(((4-fluorotetrahydro-2H-pyran-4-yl)methyl)amino)-3-nitrophenyl)sulfonyl)-6-(2-(2-(2-isopropylphenyl)-4-(4-methoxybenzyl)piperazin-1-yl)-7-azaspiro[3.5]non-7-yl) nicotinamide], the IC50 in data set [1] is below 10 nM; in data set [2] (setting [7]), above 20000 nM; in data set [3], below 0.5 nM; in data set [5], below 10 nM; in data set [6], below 10 nM.
As for `COc1ccc(CN2CCN(C3CC4(CCN(c5ccc(C(=O)NS(=O)(=O)c6cc([N+](=O)[O-])c(NC[C@H]7CC[C@](C)(O)CC7)c7[nH]cnc67)c(Oc6cnc7[nH]ccc7c6)c5)CC4)C3)[C@H](c3ccccc3C(C)C)C2)cc1` [compound 259, 2-((1H-pyrrolo[2,3-b]pyrid-5-yl)oxy)-N-((7-((((1r,4r)-4-hydroxy-4-methylcyclohexyl)methyl)amino)-6-nitro-1H-benzo[d]imidazol-4-yl)sulfonyl)-4-(2-((R)-2-(2-isopropylphenyl)-4-(4-methoxybenzyl)piperazin-1-yl)-7-azaspiro[3.5]non-7-yl)benzamide], the IC50 in data set [1] is below 10 nM; in data set [2] (setting [7]) it was above 20000 nM; in data set [3], below 0.5 nM; in data set [5], below 10 nM; in data set [6], below 10 nM.
With `COc1ccc(CN2CCN(C3CC4(CCN(c5cc(Oc6cnc7[nH]ccc7c6)c(C(=O)NS(=O)(=O)c6cc([N+](=O)[O-])c(NC[C@H]7CC[C@](C)(O)CC7)c7[nH]cnc67)cc5F)CC4)C3)[C@H](c3ccccc3C(C)C)C2)cc1` [compound 262, 2-((1H-pyrrolo[2,3-b]pyrid-5-yl)oxy)-5-fluoro-N-((7-((((1r,4r)-4-hydroxy-4-methylcyclohexyl)methyl)amino)-6-nitro-1H-benzo[d]imidazol-4-yl)sulfonyl)-4-(2-((R)-2-(2-isopropylphenyl)-4-(4-methoxybenzyl)piperazin-1-yl)-7-azaspiro[3.5]non-7-yl)benzamide], the IC50 in data set [1] is below 10 nM; in data set [2] (setting [7]), above 20000 nM; in data set [3], 0.5 to 1 nM; in data set [4] (values given in μM), above 1000 nM; in data set [5], below 10 nM; in data set [6] it was below 10 nM.
`COc1ccc(CN2CCN(C3CC4(CCN(c5cc(Oc6cnc7[nH]ccc7c6)c(C(=O)NS(=O)(=O)c6cc([N+](=O)[O-])c(NCC7CCOCC7)c7[nH]cnc67)cc5F)CC4)C3)[C@H](c3ccccc3C(C)C)C2)cc1` [compound 263, (R)-2-((1H-pyrrolo[2,3-b]pyrid-5-yl)oxy)-5-fluoro-4-(2-(2-(2-isopropylphenyl)-4-(4-methoxybenzyl)piperazin-1-yl)-7-azaspiro[3.5]non-7-yl)-N-((6-nitro-7-(((tetrahydro-2H-pyran-4-yl)methyl)amino)-1H-benzo[d]imidazol-4-yl)sulfonyl)benzamide]: the IC50 in data set [1] is below 10 nM; in data set [2] (setting [7]), above 20000 nM; in data set [3] it was 0.5 to 1 nM; in data set [4] (values given in μM) it was 1300 nM; in data set [5], below 10 nM; in data set [6], below 10 nM.
Consider `COc1ccc(CN2CCN(C3CC4(CCN(c5cc(Oc6cnc7[nH]ccc7c6)c(C(=O)NS(=O)(=O)c6cc([N+](=O)[O-])c(NCC7(F)CCOCC7)c7[nH]cnc67)cc5F)CC4)C3)[C@H](c3ccccc3C(C)C)C2)cc1` [compound 264, (R)-2-((1H-pyrrolo[2,3-b]pyrid-5-yl)oxy)-5-fluoro-N-((7-(((4-fluorotetrahydro-2H-pyran-4-yl)methyl)amino)-6-nitro-1H-benzo[d]imidazol-4-yl)sulfonyl)-4-(2-(2-(2-isopropylphenyl)-4-(4-methoxybenzyl)piperazin-1-yl)-7-azaspiro[3.5]non-7-yl)benzamide], for which the IC50 is below 10 nM in data set [1]; above 20000 nM in data set [2] (setting [7]); 0.5 to 1 nM in data set [3]; below 10 nM in data set [5]; below 10 nM in data set [6].
For `COc1ccc(CN2CCN(C3CC4(CCN(c5cc(Oc6cnc7[nH]ccc7c6)c(C(=O)NS(=O)(=O)c6cc([N+](=O)[O-])c(NCC7(F)CCOCC7)c7[nH]cnc67)cn5)CC4)C3)[C@H](c3ccccc3C(C)C)C2)cc1` [compound 268, (R)-4-((1H-pyrrolo[2,3-b]pyrid-5-yl)oxy)-N-((7-(((4-fluorotetrahydro-2H-pyran-4-yl)methyl)amino)-6-nitro-1H-benzo[d]imidazol-4-yl)sulfonyl)-6-(2-(2-(2-isopropylphenyl)-4-(4-methoxybenzyl)piperazin-1-yl)-7-azaspiro[3.5]non-7-yl) nicotinamide], the IC50 in data set [1] is below 10 nM; in data set [2] (setting [7]), above 20000 nM; in data set [3], below 0.5 nM; in data set [4] (values in nM), above 500 nM; in data set [5], below 10 nM; in data set [6], below 10 nM.
